# Assays:
# Type in all cases: biochemical, Campylobacter jejuni
# MBP-CjCgtBΔ30-His6 [1] = assay: Effects of divalent metal cations, EDTA and DTT on enzyme activity; conditions: pH 7.5, Tris-HCl buffer (100 mM); DTT 10 mM
# Method: (§1) The enzymatic assays were carried out in duplicate at 37° C. for 10 minutes in a reaction mixture (10 μL) containing the donor substrate (1.5 mM, UDP-GalNAc for MBP-Δ15CjCgtA-His6 and UDP-Gal for MBP-CjCgtBΔ30-His6), an acceptor substrate (1 mM, GM3βNHCbz for MBP-Δ15CjCgtA-His6 and GM2βNHCbz for MBP-CjCgtBΔ30-His6), Tris-HCl buffer (100 mM, pH 7.5), a metal cation (10 mM, MgCl2 for MBP-Δ15CjCgtA-His6 and MnCl2 for MBP-CjCgtBΔ30-His6), and the enzyme (0.32 μM for MBP-Δ15CjCgtA-His6 and 4 μM for MBP-CjCgtBΔ30-His6). The reactions were stopped by adding 10 μL of ice-cold methanol followed by incubation of the mixture on ice for 20 minutes and centrifugation at 16200 g for 5 minutes. The supernatant (about 20 μL) was transferred into another tube containing ddH2O (40 μL) and the resulting mixture was analyzed by liquid chromatography-mass spectrometry (LC-MS) (SHIMADZU LCMS-2020 system with electrospray ionization) for confirming the product and ultra-high-performance liquid chromatography (UHPLC) (monitored at 215 nm on an Agilent Infinity 1290 II HPLC system equipped with 1260 Infinity II Diode Array Detector WR) for reaction yield determination. The column used for the UHPLC analysis was Dionex™ CarboPac™ PA-100 (1.8 μm particle, 4×250 mm, Thermo Scientific, CA) for both glycosyltransferases. A gradient flow (100% water to 70% water/30% 1 M NaCl in 16 min) was used for analyzing the reactions catalyzed by MBP-Δ15CjCgtA-His6 and a different gradient flow (100% water to 75% water/[…] in 16 min) was used for analyzing MBP-CjCgtBΔ30-His6-catalyzed reactions. The flow rate was 0.75 mL min^−1.
# (§2) The effect of various metal ions, the chelating reagent EDTA, and the reducing reagent DTT on the enzyme activity of MBP-Δ15CjCgtA-His6 and MBP-CjCgtBΔ30-His6 were examined at pH 7.5 in a Tris-HCl buffer (100 mM). Reactions without metal ions were used as controls.
# MBP-Δ15CjCgtA-His6 [2] = assay: as above; conditions: pH 7.5, Tris-HCl buffer (100 mM); DTT 10 mM
# Method: as §1, §2
# MBP-Δ15CjCgtA-His6 [3] = assay: Effects of detergents on MBP-Δ15CjCgtA-His6-catalyzed OPME formation of GM2βSph; conditions: glycosphingosine acceptor, HRMS; sodium cholate 8-10 mM; Triton X-100 10 mM
# Method: Assays were carried out at 30° C. for 12 hours in a total volume of 10 μL in Tris-HCl buffer (100 mM, pH 7.5) containing a GM3βSph (10 mM), GalNAc (15 mM), ATP (15 mM), UTP (15 mM), MgCl2 (20 mM), BLNahK (2 μg), PmGlmU (2 μg), MBP-Δ15CjCgtA-His6 (3 μg), PmPpA (1 μg), and various concentrations (0, 1, 2, 4, 5, 8, 10, 15, 18 mM) of sodium cholate or Triton X-100 (1, 5, 10, 15 mM). Reactions were quenched by addition of 10 μL of pre-chilled ethanol and the mixtures were incubated at 0° C. for 30 min, centrifuged, and the supernatant were analyzed by high resolution mass spectrometry (HRMS).
# (§3) Glycosphingosines are much weaker acceptor substrates than the corresponding glycans for both CjCgtA and CjCgtB. This property made it prohibitive for synthesizing GM2βSph and GM1βSph in large-scales using the OPME strategy. […] The effects of these detergents in influencing the activities of both MBP-Δ15CjCgtA-His6 and MBP-CjCgtBΔ30-His6 in using glycosphingosine acceptor substrates and the reactions were analyzed by high-resolution mass spectrometry (HRMS).
# MBP-CjCgtBΔ30-His6 [4] = assay: Effects of detergents on MBP-CjCgtBΔ30-His6 with glycosphingosine acceptor substrates; conditions: HRMS, sodium cholate 8-10 mM, Triton X-100 10 mM
# Method: as §3
Compound,effect on the enzyme activity of MBP-CjCgtBΔ30-His6 (MBP-CjCgtBΔ30-His6 [1]),effect on the enzyme activity of MBP-Δ15CjCgtA-His6 (MBP-Δ15CjCgtA-His6 [2]),effect of detergent on reaction yield / enzyme activity (MBP-Δ15CjCgtA-His6 [3]),effect of detergent on reaction yield / enzyme activity (MBP-CjCgtBΔ30-His6 [4])
O[C@H](CS)[C@H](O)CS (racemic) [dithiothreitol],improved the activity,deactivated,,
[Ca+2] [Ca^2+],not,suitable,,
[Mg+2] [Mg^2+],less effective,equally effective,,
[Mn+2] [Mn^2+],preferred cation,,,
C[C@H](CCC(=O)[O-])[C@H]1CC[C@H]2[C@@H]3[C@H](O)C[C@@H]4C[C@H](O)CC[C@]4(C)[C@H]3C[C@H](O)[C@]12C.[Na+] [sodium cholate],,,greatly enhanced,greatly enhanced
Triton X-100,,,improved,improved

# — patent publication US20260258378A1, “GLYCOSYLTRANSFERASE ENGINEERING FOR CHEMOENZYMATIC TOTAL SYNTHESIS OF GANGLIOSIDES” (priority 2022, published 2026)
